Test results from patent US20060147456A1, “Induction of apoptosis in toll-like receptor expressing tumor cells” (priority 2004, published 2006).

What was measured:
TLR3 mRNA = TLR3 mRNA expression by RT-PCR in Cama-1 cells; format: cell-based, human; details: 48 h
Description: Cama-1 cells were analyzed for TLR3 mRNA expression in response to Poly IC. Cama-1 cells were cultured in complete medium (DMEM F12 containing […] glucose and complemented with 2 mM L-glutamine, 10% fetal calf serum, 160 μg/mL gentalline, 2.5 mg/mL sodium bicarbonate) for 48 hours either alone or with LPS (5 μg/ml) and/or with Poly IC (5 μg/ml). The mRNA from each group of cells was extracted. The mRNA was then reverse-transcribed and PCR amplified for 35 cycles (as above in Example 1) with hTLR3 specific primers: TLR3F: […] (SEQ ID NO: 5) and TLR3R: […] (SEQ ID NO: 6). TLR3 mRNA could not be amplified from resting Cama-1 cells.
Amplified DNA from RT-PCR using hTLR3 specific primers was run on a gel.

[1] = test system: colon cancer cell line LS174T; test: BrdU incorporation and propidium iodide DNA content by FACS; format: cell-based
Description: Two cell lines, the colon cancer cell line LS174T and the breast cancer cell line Cama-1, were analyzed for death and cell cycle changes. Cells were cultured for 48 hours in either the presence or absence of Poly IC (5 μg/ml). Following a 30-minute pulse with 1 μg/ml bromodeoxyuridine (BrdU), the cells were fixed overnight at 4° C. in 70% ethanol before staining with FITC-coupled anti-BrdU monoclonal antibody and 3 μg/ml propidium iodide. Cell death and the cell cycle were analyzed by flow cytometry (FACS). BrdU incorporation is a measure of proliferation, whereas propidium iodide staining allows the quantification of DNA content, in particular the subdiploid cell population undergoing apoptosis.

[2] = test system: human primary breast tumor cells; test: Apoptosis by PI staining (subG0/G1 cells); format: cell-based; details: 50 μg/ml Poly IC, 48 h; PBS 19.5%
From the text: Human primary breast tumor sample was obtained from the Centre Léon Bérard (Lyon, France) in agreement with the Hospital bioethical protocols. A single cell suspension was obtained after digestion with Collagenase A (Sigma-Aldrich) and washes and enrichment in Human Epithelial Antigen (HEA) positive cells using HEA-microbeads (Mylteni Biotech, Bergisch Gladbach, Germany) according to manufacturer's instructions. The final single cell suspension contained more than 80% HEA positive cells and less than 2% CD4^+ hematopoietic contaminants.
Cell recovery after treatment with TLR ligands was measured by crystal violet staining (Sigma-Aldrich). Cells were plated at 10^4 cells/well in 96 well plates. […] Sub-diploid cells were detected by staining with 3 μg/mL propidium iodide (PI) (Molecular probes, Eugene, Oreg.), after overnight permeabilization in 70% ethanol. Fluorescence was analyzed by flow cytometry on a FACScalibur (Becton Dickinson, Mountain View, Calif.) equipped with a doublet-discrimination module and using Celiquest Pro software (Becton Dickinson).
We then tried to determine the effect that Poly IC has on human primary breast tumor cells. […] Apoptosis was measured by PI staining. […]

eye tumors = test: Eye tumor development in TRP-Tag/IFNαβγR−/− mice; format: in vivo, mouse; details: 100 μg/dose intravenous on days 21, 23, 25, 27 and 29
Description: We analyzed the effect of IFN on Poly IC induced apoptosis in vivo. TRP-Tag mice express SV40 T antigen in the retinal pigmented epithelium and typically develop eye tumors with complete penetrance within weeks from birth.
In these experiments, fourteen to sixteen TRP-Tag/IFNαβγR−/− mice per experiment (these are TPR-Tag mice that had been crossed to mice simultaneously deficient in the receptor for type I interferons (IFNαβR) and the receptor for type II interferon (IFNγR)) were treated on days 21, 23, 25, 27 and 29 by intravenous injections of either Poly IC (100 μg/dose) or PBS. The kinetics of visible eye tumor development was monitored 2-3 times per week.

[3] = test system: phosphorylated Stat1 (tyrosine 701); test: Western Blot of Cama-1 cell lysate for phosphorylated Stat1; format: cell-based, human; details: 5 μg/ml Poly IC
Description: Cama-1 cells were lysed in 1% Nonidet-P40-containing buffer. 20 μg total protein was loaded per lane on SDS-Polyacrylamide gels (Invitrogen). Western Blots (WB) were performed with standard techniques using the antibodies described above. Anti IRAK-4 monoclonal antibodies were generated in the laboratory according to the protocol described in Fossiez et al., “T cell interleukin-17 induces stromal cells to produce proinflammatory and hematopoietic cytokines”, J. Exp. Med., vol. 183(6), pp. 2593-2603 (1996).
The involvement of type 1 interferon in TLR3 mediated apoptosis was evaluated. Cama-1 cells were incubated with 5 μg/ml Poly IC for either 0 hours, 1 hour, 6 hours, 18 hours or 24 hours. The presence of IFN-β, phosphorylated Stat1 (tyrosine 701) (P-Stat-1) and total Stat-1 in the cell lysate were analyzed by Western Blot.

polyinosinic-polycytidylic acid [Poly IC]
TLR3 mRNA expression (TLR3 mRNA; 5 μg/ml, agent alone): induced
TLR3 expression on gel (TLR3 mRNA; both Poly IC (5 μg/ml) and LPS (5 μg/ml)): showed TLR3 expression
percentage of cells with subdiploid DNA content ([1]; 48 h with 5 μg/ml Poly IC (3% before treatment)): 23%
percentage of cells that incorporated BrdU ([1]; 48 h with 5 μg/ml Poly IC (27% before treatment)): 9%
cells with low DNA content (subG0/G1 cells) [2]: 38.6%
delay of appearance of eye tumors compared to PBS (eye tumors): up to 21 days
time of maximum Stat1 phosphorylation [3]: 6 h
Stat1 phosphorylation ([3]; 0 to 24 hours): observed
